Assay results published in PubChem BioAssay (NCI).
Where “and” joins values, the source holds several entries; their conditions need not be identical. Equal entries are not always repeated.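 Values below derive from 48-hour exposures of cells grown in 96-well plates, with endpoints linearly interpolated between the two concentrations bracketing the appropriate inhibition level. GI50 = concentration required for 50% inhibition of growth. TGI denotes the concentration required for complete inhibition of growth.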

Key:
Test in all cases: NCI-60 cell line screen, 48 h
[1] = tested on: HCT-15 colon
[2] = tested on: HT29 colon
[3] = tested on: MALME-3M melanoma
[4] = tested on: MDA-MB-231 breast
[5] = tested on: MDA-MB-435
[6] = tested on: NCI-H460 lung
[7] = tested on: NCI/ADR-RES ovarian
[8] = tested on: RXF 393 renal
[9] = tested on: SN12C renal
[10] = tested on: T-47D breast

Row | Compound | GI50 [1] | TGI [1] | GI50 [2] | TGI [2] | GI50 [3] | TGI [3] | GI50 [4] | TGI [4] | GI50 [5] | TGI [5] | GI50 [6] | TGI [6] | GI50 [7] | TGI [7] | GI50 [8] | TGI [8] | GI50 [9] | TGI [9] | GI50 [10] | TGI [10]
1 | Cc1cc(I)cc(CN(C)CCCN2CCCCCCC2)c1O | 10.9 µM | 23.3 µM | 6.26 µM | 21.1 µM | 19.5 µM | 36.1 µM | 14.9 µM | 29.6 µM | 13.2 µM | 30.1 µM | 13.7 µM | 28.3 µM | 20.1 µM | 45.3 µM | 14.3 µM | 35.1 µM | 18 µM | 41.1 µM | 19.6 µM | 52.8 µM
2 | COc1ccc(-n2cc(-c3cc(OC)c(OC)c(OC)c3)c(C(=O)C(F)(F)F)c2C)cc1 | 59.4 µM | > 100 µM | 9.75 µM | > 100 µM | > 100 µM | > 100 µM | > 100 µM | > 100 µM | 43.3 µM | > 100 µM | 29.4 µM | > 100 µM | 25.8 µM | > 100 µM | > 100 µM | > 100 µM | 28.6 µM | > 100 µM | 3.81 µM | > 100 µM
3 | O=C(O)CCC(=O)c1ccc[nH]1 |  | > 100 µM |  | > 100 µM |  | > 100 µM |  | > 100 µM |  | > 100 µM |  | > 100 µM |  | > 100 µM |  | > 100 µM |  | > 100 µM |  | > 100 µM
4 | CCN1CCN(C(c2ccc(C(F)(F)F)cc2)c2ccc3cccnc3c2O)CC1 (stereo not given) | 3.74 µM | 17.6 µM | 5.31 µM | 21 µM | 3.72 µM | 15.4 µM | 2.97 µM | 25.3 µM | 3.76 µM | 17.8 µM | 0.412 µM | 10.8 µM | 1.77 µM | 10.9 µM | 3.2 µM | 16 µM | 2.27 µM | 15.3 µM | 4.19 µM | 15.2 µM
5 | CCCCCCCCCCCCOC1C(C(COC2OC(C3COC(C)(C)O3)C3OC(C)(C)OC23)NC(=O)Nc2ccc(C(=O)O)cc2)OC2OC(C)(C)OC21 (stereo not given) | 2.63 µM | 6.7 µM | 2.01 µM | 6.88 µM | 2.88 µM | 6.91 µM | 1.99 µM | 4.98 µM | 2.63 µM | 7.91 µM | 2.45 µM | 5.89 µM | 10.9 µM | 24.8 µM | 2.26 µM | 4.05 µM | 3.45 µM | 12.4 µM | 3.39 µM | 13.5 µM
6 | CNC(=O)N(C)N=NCCCl |  | > 100 µM |  | > 100 µM |  | > 100 µM |  | > 100 µM |  | > 100 µM |  | > 100 µM |  | > 100 µM |  | > 100 µM |  | > 100 µM |  | > 100 µM
7 | Cn1nc(N)c2cc([C@@H]3Nc4ccc5[nH]ncc5c4[C@H]4C5CCC(C5)[C@@H]34)ccc21 (stereo not given in full) | 0.425 µM | 14 µM | 0.387 µM | > 38.1 µM | 0.442 µM | 32.7 µM | 2.31 µM | 16.8 µM | 0.166 µM | 0.437 µM | 0.402 µM | 11.6 µM | 0.4 µM | 10 µM | 0.227 µM | 0.825 µM | 0.612 µM | 21.2 µM | 0.471 µM | 58.8 µM
8 | CCOC(=O)CCCn1c(SC)nc2[nH]cc(-c3ccccc3)c2c1=O | 27.1 µM | > 100 µM | 19.5 µM | 59.7 µM | 15.1 µM | 42.1 µM | 25.8 µM | 66.7 µM | 19.4 µM | 42.4 µM | 33.6 µM | > 100 µM | 18.9 µM | 53.1 µM | 18.2 µM | 49 µM | 17 µM | 49.9 µM | 18.2 µM | 61.4 µM
9 | CCCCCCNC(=O)c1cc(NCc2cc(O)ccc2O)ccc1O | 2.16 µM | 7.35 µM | 21.6 µM | 44.3 µM | 2.74 µM | 8.29 µM | 2.78 µM | 10.4 µM | 9.48 µM | 22.1 µM | 21.5 µM | 82.3 µM | 5.44 µM | 78.1 µM | 2.42 µM | 8.03 µM | 4.75 µM | 17.4 µM | 1.92 µM | 5 µM
10 | C=COCCCOc1ccccc1 |  | > 100 µM |  | > 100 µM |  | > 100 µM | > 100 µM | > 100 µM | > 100 µM | > 100 µM |  | > 100 µM | > 100 µM | > 100 µM |  | > 100 µM |  | > 100 µM | > 100 µM | > 100 µM
11 | CC(C)CCN1c2nc(Nc3cc(F)c(O)c(F)c3)ncc2N(C)C(=O)C1C (stereo not given) | 3.5 µM | > 49.1 µM | 5.83 µM | 46.7 µM | 6.63 µM | 64 µM | 5.17 µM | > 100 µM | 1.29 µM | 55.8 µM | 3.91 µM | 17 µM | 7.81 µM | > 100 µM | 7.94 µM | 31.4 µM | 4.9 µM | > 91.6 µM | 6.36 µM | 25.9 µM
12 | O=C1c2cccc(NCCCNCCO)c2C(=O)c2cccc(NCCCNCCO)c21 |  | 19.8 µM and 23.3 µM |  | 4.43 µM and 5.38 µM | 2.06 µM and 4.18 µM | 3.94 µM and 10.4 µM |  | 3.37 µM |  | 3.06 µM |  | 4 µM and 4.23 µM |  | 28.6 µM |  | 5.54 µM and 5.82 µM |  | 6 µM and 5.31 µM |  | 8.89 µM
13 | O=C(Cc1ccc(/C=C/C(=O)c2ncc[nH]2)cc1)Nc1cc(F)c(F)c(F)c1 | 2.39 µM | 8.25 µM | 0.861 µM | 4.17 µM | 4.33 µM | 12.2 µM | 6.45 µM | 21.1 µM | 4.25 µM | 12.8 µM | 3.31 µM | 11.7 µM | 7.26 µM | > 25 µM | 3.06 µM | 6.56 µM | 4.27 µM | 11.1 µM | 2.91 µM | 10.5 µM
14 | C=C(c1nc2ccc(Cl)cc2[nH]c1=O)C(O)c1ccc(C(O)C(=O)c2nc3ccc(Cl)cc3[nH]c2=O)cc1 (stereo not given) |  | > 100 µM |  | > 100 µM |  | > 100 µM |  | > 100 µM |  | > 100 µM |  | > 100 µM |  | > 100 µM |  | > 100 µM |  | > 100 µM |  | > 100 µM
15 | COc1ccc2c(c1)CCCC(Br)C2=O (stereo not given) |  | 12.7 µM |  | 20.2 µM |  | 21.5 µM |  | 10.9 µM |  | 5.99 µM |  | 10.5 µM |  | > 29.9 µM |  | 17.7 µM |  | 9.13 µM |  | > 100 µM
16 | [Cl][Hg][c]1cc(Br)cc(Br)c1 | 1.6 µM | 3.22 µM | 2.62 µM | 10.6 µM | 1.69 µM | 3.28 µM | 1.79 µM | 3.89 µM | 1.8 µM | 3.82 µM | 2.05 µM | 7.61 µM | 3.07 µM | 13.5 µM | 1.45 µM | 2.85 µM | 1.61 µM | 3.56 µM | 2 µM | 7.88 µM
17 | C=CCCCCC/C=C\[C@H](O)C#CC#C/C=C/CO | 30 µM | > 100 µM | > 100 µM | > 100 µM | 54 µM | > 100 µM | 14.5 µM | 33.8 µM | 39.8 µM | > 100 µM | > 100 µM | > 100 µM | 23.5 µM | 57.3 µM | 34.5 µM | > 100 µM | 15 µM | 35.1 µM | 98.4 µM | > 100 µM
18 | O=C(Nc1ccc(Cl)cc1F)c1ccccc1O | 1.92 µM | 14.2 µM | 5.32 µM | 92.9 µM | 2.26 µM | 8.8 µM | 1.44 µM | 3.79 µM | 3.37 µM | 30.7 µM | 3.21 µM | 19.7 µM | 2.44 µM | 7.61 µM | 3.23 µM | 11.2 µM | 2.24 µM | 8.71 µM | 2.49 µM | > 100 µM
19 | O=c1c2sc(=S)n(-c3ccc(F)cc3)c2ncn1Cc1ccc(F)cc1F | > 100 µM | > 100 µM | > 100 µM | > 100 µM | > 100 µM | > 100 µM | > 100 µM | > 100 µM | > 100 µM | > 100 µM | > 100 µM | > 100 µM | > 100 µM | > 100 µM | > 100 µM | > 100 µM | > 100 µM | > 100 µM | > 100 µM | > 100 µM
20 | Cc1ccc(C)c(C2=C(c3cn(C)c4ccccc34)C(=O)NC2=O)c1 | 9.33 µM | > 25 µM | > 16 µM | > 25 µM | > 25 µM | > 25 µM | > 25 µM | > 25 µM | 24 µM | > 25 µM | > 17.4 µM | > 25 µM | > 25 µM | > 25 µM | 5.93 µM | > 25 µM | > 25 µM | > 25 µM | 14 µM | > 25 µM
21 | CCn1c(-c2nonc2N)nc2c(C#CC(C)(C)O)nc(OC[C@H](N)c3ccccc3)cc21 | 2.53 µM | 6.73 µM | 4.11 µM | 8.81 µM | 4.69 µM | 9.35 µM | 4.35 µM | 8.83 µM | 4.79 µM | 9.42 µM | 2.76 µM | 6.31 µM | 5.31 µM | 13.9 µM | 1.28 µM | 4.73 µM | 3.67 µM | 7.38 µM | 2.88 µM | 7.53 µM
